In patent publication US5817692A, “Endoperoxides useful as antiparasitic agents” (priority 1996, dated 1998) one finds IC50 data, which are given here for 21 molecules.

Assay [1] relates to Plasmodium falciparum. Put plainly: antimalarial activity, tritiated-hypoxanthine incorporation assay in human red blood cells. Conditions: Erythrocyte, read-out: IC50 (inhibition of 50% of the replication of Plasmodium falciparum). The format is cell-based. On the procedure: (§1) The protozoan Plasmodium falciparum is a causative agent of malaria, the single most critical infectious disease of mankind. The antimalarial activity of the endoperoxides was determined according to the method of Desjardins et al. (16) as modified by Milhous et al. (17). Briefly, the antimalarial activity of the endoperoxides was tested in a tritiated-hypoxanthine incorporation assay by determining the concentration of the test compound needed to inhibit 50% of the replication of Plasmodium falciparum (IC50) in human red blood cells.
It is particularly noted that JHU 2886 has an excellent therapeutic index (ratio of activity to toxicity). At 1 μM, JHU 2886 has a therapeutic index of 70/0, whereas at the same concentration artimisinin has a therapeutic index of 76/10 (7.6), and atovaquone has a therapeutic index of only 95/17 (5.6). […] The first two compounds are known while the following five are being disclosed for the first time. […] Compounds of this formula wherein Ar is p-FCH2 Ph or p-HOCH2 Ph and X is CH2 are also expected to be particularly useful. […]

The test system of assay [2] is P. falciparum NF54. Briefly: antimalarial activity, P. falciparum NF54 parasites in vitro. Type of assay: cell-based. The settings on record: Plasmodium falciparum. As for the experimental part: as §1
Tables 4 and 5 show the structures and antimalarial activities of unsaturated and saturated bicyclic [2.2.2] endoperoxides of the invention. Compounds of this formula wherein R and R' are identical are particularly preferred. It is expected that compounds wherein R and R' are selected from the groups [drawing 33] will be especially useful. […]

[3] abbreviates: P. falciparum NF54 parasites in vitro, read-out: Antimalarial Activity IC50.
Setting [4] is: NF54, read-out: Antimalarial Activity IC50.

Where two headings read alike, the source gives them in different places.

For `C1=CC2(c3ccccc3)CCCC1(c1ccccc1)OO2`, the IC50 (commonly the midpoint of a concentration-inhibition curve) in assay [1] turned out to be 0.15 µM.
Take `CC1(C)CC2(c3ccccc3)CCC(c3ccccc3)(C1)OO2` [Ar = Ph, X = C(CH3)2]: the IC50 in assay [1] is above 1 µM.
In the case of `c1ccc(C23CCCC(c4ccccc4)(CC2)OO3)cc1` [Ar = Ph, X = CH2], the IC50 in assay [1] and in assay [2] (setting [3]) was 0.089 µM each time.
Turning to `O=S1(=O)CC2(c3ccccc3)CCC(c3ccccc3)(C1)OO2` [Ar = Ph, X = SO2], in assay [1], the IC50 is above 1 µM.
The same measure, in the same setting: the value for `c1ccc(C23CCC(c4ccccc4)(CC4(CCCCC4)C2)OO3)cc1` [Ar = Ph, X = drawing 40] was above 1 µM.
On the same count and under the same terms, with `Fc1ccc(C23CCCC(c4ccc(F)cc4)(CC2)OO3)cc1` [Ar = p-FPh, X = CH2] the figure was 0.038 µM.
Consider `COc1ccc(C23CCCC(c4ccc(OC)cc4)(CC2)OO3)cc1` [Ar = p-MeOPh, X = CH2], for which, in assay [1], the IC50 was 0.062 µM.
Turning to `Fc1ccc(C23C=CC(c4ccc(F)cc4)(CC2)OO3)cc1` [R = F, R' = F], the IC50 in assay [2] (setting [3]) came to 0.07 µM.
Same read-out and setting: with `Fc1ccc(C23C=CC(c4ccccc4)(CC2)OO3)cc1` (centres unmarked) [R = H, R' = F] the figure was 0.071 µM; with `Cc1ccc(C23C=CC(c4ccc(C)cc4)(CC2)OO3)cc1` [R = Me, R' = Me], 0.14 µM.
Regarding `FC(F)(F)c1ccc(C23CCC(c4ccc(C(F)(F)F)cc4)(CC2)OO3)cc1` [Table 5, R = CF3], the IC50 in assay [2] (setting [3]) was 0.082 µM.
Consider `Fc1ccc(C23CCC(c4ccc(F)cc4)(CC2)OO3)cc1` [Table 5, R = F], for which the IC50 in assay [2] (setting [3]) is 0.063 µM.
Turning to `c1ccc(C23CCC(c4ccccc4)(CC2)OO3)cc1` [Table 5, R = H], in assay [2] (setting [3]), the IC50 was determined as 0.21 µM.
`OCc1ccc(C23CCCC(c4ccccc4)(CC2)OO3)cc1` (centres unmarked) [Table 6, R = CH2 OH]: the IC50 in assay [2] (setting [3]) came out at 0.081 µM.
Consider `CC(C)(C)[Si](C)(C)OCc1ccc(C23CCCC(c4ccccc4)(CC2)OO3)cc1` (centres unmarked) [Table 6, R = CH2 OSiMe2 Bu-t], for which, in assay [2] (setting [4]), the IC50 is 0.099 µM.
With `Fc1ccc(C23CCCC(c4ccccc4)(CC2)OO3)cc1` (centres unmarked) [Table 6, R = F], the IC50 in assay [2] (setting [3]) stood at 0.042 µM.
Same read-out and setting: with `Oc1ccc(C23CCCC(c4ccccc4)(CC2)OO3)cc1` (centres unmarked) [Table 6, R = OH] the figure was above 2.5 µM.
For `CC(C)(C)[Si](C)(C)Oc1ccc(C23CCCC(c4ccccc4)(CC2)OO3)cc1` (centres unmarked) [Table 6, R = OSiMe2 Bu-t], in assay [2] (setting [4]), the IC50 is 0.29 µM.
As to `C1=CC2(c3ccccc3)CC1(c1ccccc1)OO2` [n = 1], the IC50 in assay [1] was 0.65 µM.
For `C1=CC2(c3ccccc3)CCC1(c1ccccc1)OO2` [n = 2], the IC50 is 0.15 µM in assay [1] and 0.18 µM in assay [2] (setting [3]).
`C1=CC2(c3ccccc3)CCCCC1(c1ccccc1)OO2` [n = 4]: the IC50 in assay [1] was 0.41 µM.
